Data taken from patent publication US9249129B2, “Morpholino substituted urea derivatives as mTOR inhibitors” (CELLZOME LIMITED, priority 2010, dated 2016).

Experiments:
Assay in all cases: kinobeads assay with mass spectrometry detection of kinases (kinase selectivity profile)
Type in all cases: binding
[1] = target: T1, kinases (kinome) (Homo sapiens, UniProt P00519); details: ABL (TK), IPI00221171
T1 construct: determined in kinobeads assays with mass spectrometry detection of kinases as described previously; endogenous in cells; host or cells: cell lysate
Source text: (§1) The protein kinase complement of the human genome (the kinome) was described previously (Manning et al., 2002. Science 298(5600):1912-1934). Sequence accession numbers are defined by the International Protein Index (IPI) (Kersey et al., 2004. Proteomics 4(7):1985-1988).

[2] = target: T2, kinases (kinome) (Homo sapiens, UniProt Q99570); details: PIK3R4 (Other), IPI00024006
T2 construct: determined in kinobeads assays with mass spectrometry detection of kinases as described previously; endogenous in cells; host or cells: cell lysate
Source text: as §1

[3] = target: T3, kinases (kinome) (Homo sapiens, UniProt O15197); details: EphB6 (TK), IPI00005222
T3 construct: determined in kinobeads assays with mass spectrometry detection of kinases as described previously; endogenous in cells; host or cells: cell lysate
T3 sequence (O15197 32-1021): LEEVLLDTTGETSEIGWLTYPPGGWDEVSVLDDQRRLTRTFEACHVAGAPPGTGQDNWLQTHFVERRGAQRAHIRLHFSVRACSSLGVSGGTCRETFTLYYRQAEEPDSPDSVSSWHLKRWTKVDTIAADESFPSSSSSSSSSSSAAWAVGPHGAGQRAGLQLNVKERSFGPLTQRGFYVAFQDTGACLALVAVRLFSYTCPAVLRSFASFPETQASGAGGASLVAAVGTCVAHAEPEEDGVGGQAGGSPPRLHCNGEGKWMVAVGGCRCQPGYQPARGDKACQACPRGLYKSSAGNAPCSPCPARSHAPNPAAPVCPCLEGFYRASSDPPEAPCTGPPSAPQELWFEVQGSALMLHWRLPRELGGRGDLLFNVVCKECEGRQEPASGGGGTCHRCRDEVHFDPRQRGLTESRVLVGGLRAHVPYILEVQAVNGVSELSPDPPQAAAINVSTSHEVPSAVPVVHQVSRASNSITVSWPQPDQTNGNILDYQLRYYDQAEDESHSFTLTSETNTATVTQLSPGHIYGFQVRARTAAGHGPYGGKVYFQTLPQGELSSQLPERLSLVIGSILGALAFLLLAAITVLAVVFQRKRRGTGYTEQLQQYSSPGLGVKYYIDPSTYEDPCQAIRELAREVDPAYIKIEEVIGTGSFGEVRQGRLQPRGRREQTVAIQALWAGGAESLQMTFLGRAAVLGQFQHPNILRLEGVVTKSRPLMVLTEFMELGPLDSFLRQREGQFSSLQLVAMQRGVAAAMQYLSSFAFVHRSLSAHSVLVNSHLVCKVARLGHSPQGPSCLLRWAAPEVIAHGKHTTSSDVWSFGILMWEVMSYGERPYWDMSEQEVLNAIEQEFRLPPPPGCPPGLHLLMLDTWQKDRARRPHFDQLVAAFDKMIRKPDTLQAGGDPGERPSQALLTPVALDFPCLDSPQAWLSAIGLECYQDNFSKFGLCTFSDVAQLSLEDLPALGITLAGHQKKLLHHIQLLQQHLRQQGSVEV
Source text: as §1

[4] = target: T4, kinases (kinome) (Homo sapiens, UniProt P43403); details: ZAP70 (TK), IPI00329789
T4 construct: determined in kinobeads assays with mass spectrometry detection of kinases as described previously; endogenous in cells; host or cells: cell lysate
T4 sequence (P43403 1-619): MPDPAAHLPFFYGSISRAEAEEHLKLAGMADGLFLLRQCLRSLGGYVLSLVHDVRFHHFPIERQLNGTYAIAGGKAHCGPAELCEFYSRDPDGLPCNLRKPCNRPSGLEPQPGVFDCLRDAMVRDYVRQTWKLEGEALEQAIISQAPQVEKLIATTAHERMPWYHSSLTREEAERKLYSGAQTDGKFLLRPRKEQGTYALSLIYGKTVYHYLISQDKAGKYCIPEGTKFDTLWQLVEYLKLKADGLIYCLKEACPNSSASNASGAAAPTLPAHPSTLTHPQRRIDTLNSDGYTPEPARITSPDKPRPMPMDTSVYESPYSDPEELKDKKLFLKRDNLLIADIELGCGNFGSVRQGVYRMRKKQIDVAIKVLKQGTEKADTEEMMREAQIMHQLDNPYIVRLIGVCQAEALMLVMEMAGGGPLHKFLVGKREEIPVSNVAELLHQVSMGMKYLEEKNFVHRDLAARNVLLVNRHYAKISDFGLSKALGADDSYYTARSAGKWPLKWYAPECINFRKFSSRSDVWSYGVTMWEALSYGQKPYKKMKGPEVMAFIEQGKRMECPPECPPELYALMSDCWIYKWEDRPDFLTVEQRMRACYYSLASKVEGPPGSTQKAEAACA
Source text: as §1

[5] = target: T5, kinases (kinome) (Homo sapiens, UniProt Q8TBX8); details: PIP5K2C (Lipid Kinase), IPI00152303
T5 construct: determined in kinobeads assays with mass spectrometry detection of kinases as described previously; endogenous in cells; host or cells: cell lysate
T5 sequence (Q8TBX8 1-421): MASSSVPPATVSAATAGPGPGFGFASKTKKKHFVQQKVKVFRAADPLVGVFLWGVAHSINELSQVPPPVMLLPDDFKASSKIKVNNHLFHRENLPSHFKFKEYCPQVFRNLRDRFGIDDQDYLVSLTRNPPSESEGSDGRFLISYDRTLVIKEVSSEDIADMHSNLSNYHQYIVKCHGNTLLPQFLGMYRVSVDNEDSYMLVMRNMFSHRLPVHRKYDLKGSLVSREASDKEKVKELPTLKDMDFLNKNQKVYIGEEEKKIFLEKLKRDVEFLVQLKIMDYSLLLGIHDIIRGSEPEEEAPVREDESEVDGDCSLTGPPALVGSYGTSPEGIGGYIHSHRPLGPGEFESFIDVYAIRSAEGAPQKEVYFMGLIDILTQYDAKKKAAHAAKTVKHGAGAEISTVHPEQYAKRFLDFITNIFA
Source text: as §1

Measured: IC50

T2 sequence (Q99570 whole entry): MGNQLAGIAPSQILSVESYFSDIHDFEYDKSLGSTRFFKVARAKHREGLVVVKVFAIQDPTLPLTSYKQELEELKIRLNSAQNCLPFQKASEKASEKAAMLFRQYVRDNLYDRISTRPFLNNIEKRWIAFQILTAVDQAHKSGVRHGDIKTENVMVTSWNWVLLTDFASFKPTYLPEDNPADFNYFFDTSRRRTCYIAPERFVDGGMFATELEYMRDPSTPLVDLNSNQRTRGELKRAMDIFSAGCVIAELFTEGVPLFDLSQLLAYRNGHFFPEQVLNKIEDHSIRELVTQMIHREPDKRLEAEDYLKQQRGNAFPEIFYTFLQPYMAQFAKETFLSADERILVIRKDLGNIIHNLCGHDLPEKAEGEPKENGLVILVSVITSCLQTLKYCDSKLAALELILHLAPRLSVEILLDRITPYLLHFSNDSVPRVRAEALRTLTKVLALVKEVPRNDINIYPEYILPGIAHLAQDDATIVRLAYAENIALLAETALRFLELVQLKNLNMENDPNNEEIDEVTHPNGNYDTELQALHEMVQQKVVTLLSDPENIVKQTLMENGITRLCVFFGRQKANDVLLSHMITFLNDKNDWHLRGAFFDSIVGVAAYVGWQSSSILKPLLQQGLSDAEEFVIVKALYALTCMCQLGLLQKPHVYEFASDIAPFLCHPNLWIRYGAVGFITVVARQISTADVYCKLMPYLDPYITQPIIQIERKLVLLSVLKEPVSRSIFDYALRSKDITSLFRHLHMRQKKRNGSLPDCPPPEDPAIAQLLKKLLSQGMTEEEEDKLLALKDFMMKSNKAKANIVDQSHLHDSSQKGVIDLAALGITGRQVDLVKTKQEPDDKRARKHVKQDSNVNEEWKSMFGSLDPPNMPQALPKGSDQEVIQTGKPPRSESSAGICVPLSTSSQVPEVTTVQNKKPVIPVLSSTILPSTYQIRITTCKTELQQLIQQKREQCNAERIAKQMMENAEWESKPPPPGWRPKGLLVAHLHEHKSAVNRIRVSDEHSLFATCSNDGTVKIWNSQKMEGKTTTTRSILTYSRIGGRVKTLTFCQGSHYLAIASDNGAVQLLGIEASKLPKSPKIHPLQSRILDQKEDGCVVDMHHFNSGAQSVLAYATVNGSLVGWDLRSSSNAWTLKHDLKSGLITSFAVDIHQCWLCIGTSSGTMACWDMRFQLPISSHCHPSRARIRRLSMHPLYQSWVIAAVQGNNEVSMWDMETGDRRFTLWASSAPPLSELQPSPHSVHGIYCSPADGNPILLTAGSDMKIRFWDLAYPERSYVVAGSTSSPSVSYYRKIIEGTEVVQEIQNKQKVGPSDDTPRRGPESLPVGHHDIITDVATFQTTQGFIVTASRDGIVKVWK
T1 sequence (P00519 whole entry): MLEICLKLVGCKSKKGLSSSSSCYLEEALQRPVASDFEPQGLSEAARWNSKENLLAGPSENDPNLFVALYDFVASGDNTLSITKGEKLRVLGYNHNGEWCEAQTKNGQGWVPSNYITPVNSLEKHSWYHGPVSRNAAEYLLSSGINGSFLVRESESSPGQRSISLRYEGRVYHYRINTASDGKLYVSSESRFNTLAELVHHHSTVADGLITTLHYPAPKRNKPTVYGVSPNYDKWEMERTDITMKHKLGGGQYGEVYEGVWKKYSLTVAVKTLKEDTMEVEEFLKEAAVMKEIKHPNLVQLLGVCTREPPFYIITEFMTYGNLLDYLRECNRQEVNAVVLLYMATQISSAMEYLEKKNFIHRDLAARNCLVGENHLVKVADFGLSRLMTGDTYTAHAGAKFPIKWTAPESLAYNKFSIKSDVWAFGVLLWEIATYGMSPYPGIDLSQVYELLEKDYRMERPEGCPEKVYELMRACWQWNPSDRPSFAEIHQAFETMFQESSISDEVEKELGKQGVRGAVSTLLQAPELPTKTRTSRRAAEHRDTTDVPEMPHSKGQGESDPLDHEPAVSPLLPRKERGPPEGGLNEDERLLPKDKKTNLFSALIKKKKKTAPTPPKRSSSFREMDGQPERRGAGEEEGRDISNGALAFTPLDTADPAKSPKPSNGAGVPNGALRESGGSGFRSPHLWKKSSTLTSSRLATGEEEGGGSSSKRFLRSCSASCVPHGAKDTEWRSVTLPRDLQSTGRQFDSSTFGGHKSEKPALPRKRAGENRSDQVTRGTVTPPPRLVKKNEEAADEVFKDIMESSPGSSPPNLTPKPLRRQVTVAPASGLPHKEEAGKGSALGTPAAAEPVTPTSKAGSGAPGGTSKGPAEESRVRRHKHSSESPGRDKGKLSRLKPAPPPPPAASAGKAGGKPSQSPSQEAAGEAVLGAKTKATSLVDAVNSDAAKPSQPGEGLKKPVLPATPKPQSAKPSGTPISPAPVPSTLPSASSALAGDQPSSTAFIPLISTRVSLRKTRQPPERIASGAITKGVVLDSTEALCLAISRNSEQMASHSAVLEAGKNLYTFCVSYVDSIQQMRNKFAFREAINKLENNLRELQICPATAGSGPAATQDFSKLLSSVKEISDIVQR

C[C@H]1COCCN1c1nc(-c2ccc(NC(=O)NC3CC3)cc2)cc(-c2ccccc2S(C)(=O)=O)n1 [Example 4, (S)-1-cyclopropyl-3-(4-(2-(3-methylmorpholino)-6-(2-(methylsulfonyl)phenyl)pyrimidin-4-yl)phenyl)urea]
not listed: [5]
> 10 µM: all other assays above

C[C@H]1COCCN1c1cc(-c2ccccc2S(C)(=O)=O)nc(-c2ccc(NC(=O)NC3CC3)cc2)n1 [Example 6, (S)-1-cyclopropyl-3-(4-(4-(3-methylmorpholino)-6-(2-(methylsulfonyl)phenyl)pyrimidin-2-yl)phenyl)urea]
> 10 µM: [3]

C[C@H]1COCCN1c1nc(-c2ccc(NC(=O)N[C@H]3CCC[C@@H]3O)cc2)cc(-c2cc(F)ccc2S(C)(=O)=O)n1 [Example 76, 1-(4-(6-(5-fluoro-2-(methylsulfonyl)phenyl)-2-((S)-3-methylmorpholino)pyrimidin-4-yl)phenyl)-3-((1S,2S)-2-hydroxycyclopentyl)urea]
> 10 µM: [5] | [1] | [2]

C[C@H]1COCCN1c1nc(-c2ccc(NC(=O)NC3CC3)cc2)cc(-c2cccnc2S(C)(=O)=O)n1 [Example 46, (S)-1-cyclopropyl-3-(4-(2-(3-methylmorpholino)-6-(2-(methylsulfonyl)pyridin-3-yl)pyrimidin-4-yl)phenyl)urea]
not listed: [1]
> 10 µM: all other assays above

C[C@H]1COCCN1c1cc(-c2ccccn2)nc(-c2ccc(NC(=O)NCCO)cc2)n1 [Example 43, (S)-1-(2-hydroxyethyl)-3-(4-(4-(3-methylmorpholino)-6-(pyridin-2-yl)pyrimidin-2-yl)phenyl)urea]
> 10 µM: [5] | [2] | [4]

C[C@H]1COCCN1c1nc(-c2ccc(NC(=O)NC3CC3)cc2)cc(-c2cc(F)ccc2S(C)(=O)=O)n1 [Example 40, (S)-1-cyclopropyl-3-(4-(6-(5-fluoro-2-(methylsulfonyl)phenyl)-2-(3-methylmorpholino)pyrimidin-4-yl)phenyl)urea]
> 10 µM: all assays above
